The values that follow are results of earlier work, collected in US20240299372A1, “Transdermal Drug Delivery Systems for Administration of a Therapeutically Effective Amount of Apixaban and Other Direct Oral Anticoagulants” (Pike Therapeutics Inc., priority 2023, published 2024).

Molecules are shown by their SMILES.

For data set [1] the following is noted: for Absolute oral bioavailability: oral administration; for bioavailability: oral, background statement on GI tract exposure.
For data set [2] the following is noted: oral administration; literature refs [1-4].

Regarding `COc1ccc(NC(=O)c2ccc(C(=N)N(C)C)cc2)c(C(=O)Nc2ccc(Cl)cn2)c1` [Betrixaban, N-(5-chloropyridin-2-yl)-2-[[4-(N,N-dimethylcarbamimidoyl)benzoyl]amino]-5-methoxybenzamide], the Absolute oral bioavailability entry in data set [1] is reported as “approx. 34%”.

A word on the bioavailability: it is the share of a dose that reaches the circulation, judged against a reference dose that is usually intravenous. For `[H]/N=C(/N)c1ccc(NCc2nc3cc(C(=O)N(CCC(=O)O)c4ccccn4)ccc3n2C)cc1` [Dabigatran, 3-[[2-[(4-carbamimidoylanilino)methyl]-1-methylbenzimidazole-5-carbonyl]-pyridin-2-ylamino]propanoic acid], in data set [1], the Absolute oral bioavailability was 3%-7 and the bioavailability is on record as 6%. In addition, the “bleeding complications as reason for DOAC discontinuation” value (shortened to “bleeding complications as reason”) in data set [2] is on record as 3.4-9.7%.

As for `CN1CCc2nc(C(=O)N[C@@H]3C[C@@H](C(=O)N(C)C)CC[C@@H]3NC(=O)C(=O)Nc3ccc(Cl)cn3)sc2C1` [Edoxaban, N′-(5-chloropyridin-2-yl)-N-[(1S,2R, 4S)-4-(dimethylcarbamoyl)-2-[(5-methyl-6,7-dihydro-4H-[1,3]thiazolo[5,4-c]pyridine-2-carbonyl)amino]cyclohexyl]oxamide], the Absolute oral bioavailability entry in data set [1] is “approx. 62%”.

Consider `COc1ccc(-n2nc(C(N)=O)c3c2C(=O)N(c2ccc(N4CCCCC4=O)cc2)CC3)cc1` [Apixaban, 1-(4-methoxyphenyl)-7-oxo-6-[4-(2-oxopiperidin-1-yl)phenyl]-4,5-dihydropyrazolo[3,4-c]pyridine-3-carboxamide], for which the Absolute oral bioavailability entry in data set [1] is given as “approx. 50%”. Besides, the “bleeding complications as reason” value in data set [2] is given as 5.7-10.1%.

As for `O=C(NC[C@H]1CN(c2ccc(N3CCOCC3=O)cc2)C(=O)O1)c1ccc(Cl)s1` [Rivaroxaban, 5-chloro-N-[[(5S)-2-oxo-3-[4-(3-oxomorpholin-4-yl)phenyl]-1,3-oxazolidin-5-yl]methyl]thiophene-2-carboxamide], in data set [1], the Absolute oral bioavailability was 80%-100 and the bioavailability is recorded as 60-80%. Further, in data set [2], the “bleeding complications as reason” value was 16.8-24.5%.
